Data on one compound can be found in patent publication US10086090B2, “Indocyanine compound, synthesis method and purification method thereof, diagnostic composition using the indocyanine compound, and device for measuring biokinetics and device for visualizing circulation using the diagnostic composition” (NATIONAL UNIVERSITY CORPORATION MIE UNIVERSITY, priority 2010, dated 2018).

Data set [1] is described as follows: Ischemia model of lower limbs (ligation of right femoral artery). In kind it is in vivo. As to conditions: rat. The text has this:
As apparent from the image view 12, the state in which the fluorescence was emitted in accordance with the blood flow was clear in the dorsal region of foot.

Data set [2] can be described thus: Solubility tests in water or physiological saline. In kind it is physicochemical. As to conditions: powder. On the procedure:
Solubility tests of ICG and the cyclodextrin-bonded indocyanine compounds of the present invention (the chemical formulae 16, 20, 21, and 23 to 25) in water or physiological saline were performed.

The nature of data set [3]: Fluorescence in blood (surface fluorescence spectrum). The settings on record: 100 μM in blood (human), 25° C., 760 nm excitation. As for the experimental part:
The fluorescence of ICG and the cyclodextrin-bonded indocyanine compounds of the present invention (the chemical formulae 16, 20, 21, and 23 to 25) in blood was studied. ICG and the cyclodextrin-bonded indocyanine compounds of the present invention (the chemical formulae 16, 20, 21, and 23 to 25) were respectively dissolved in blood (human) in a concentration of 100 μM. The resulting blood was put in a triangular quartz cell at 25° C., which was excited with 760 nm excitation light (bandpass: 10 nm), and a surface fluorescence spectrum (bandpass: 10 nm) was measured. […] The cyclodextrin-bonded indocyanine compounds of the present invention, in particular, the compounds represented by the chemical formula 16 and the chemical formula 20 had respectively fluorescence intensities of 270 (arbitrary unit) and 190 (arbitrary unit), which were 4.7-fold and 3.3-fold of that of ICG. It could be considered that this is caused because the emission of light from the cyclodextrin-bonded indocyanine compound of the present invention was not hindered in the living body.

A short description of data set [4]: Observation of distribution in rat body (caudate vein administration, PDE camera). In kind it is in vivo. As for the experimental part:
Left is a monochrome image through visible light, and right is a fluorescence image.
After Wistar male rat (9-week old, a body weight of 350 g) was ether-anesthetized, 0.1 mL of Nembutal was intraperitoneally administered using a 26 G needle to perform the anesthesia. A base of the rat's tail was wrapped tightly with a rubber band to prevent the flow of blood, and the caudate vein was secured with a 24 G Therflow needle and a peripheral line were secured by inserting a three-way stopcock and an extension tube. The rat was fixed on a flat stand in a supine position (FIG. 8). A PDE camera unit manufactured by Hamamatsu Photonics K.K. was set at exactly 16 cm from the body of the rat. When the whole body was extensively photographed, the distance was 20 cm. The observation range was an about range shown by black dots in FIG. 8. After that, ICG, TK1 or TK2 was administered in a concentration of 1 mM from the peripheral line secured. The administration amount was 0.1 mL. After 20 minutes from the administration, the fluorescence state of the abdominal cavity which was opened is shown in FIG. 9, and the fluorescence state (images at the maximum luminance) of the dorsal region of foot was shown in FIG. 12.
In addition, a time reaching the maximum fluorescence intensity value (Imax), Imax value and a time at which the value reached a half of the Imax value (t1/2) are shown in Table 1.

Data set [5] can be described thus: Luminance of dorsalis pedis in λ-carrageenin edema rats (acute inflammation experiment). In kind it is in vivo, rat. On the procedure: Rats (male, Wister rat) which were 10-week old and about 350 g were selected as a test animal (n=4). The rat was generally anesthetized with isoflurane, and 0.1 mL of 0.5% […] was injected to a left posterior footpad using a 26 G needle, thus resulting quick generation of edema on the foot. After 15 minutes, a volume of the left foot of the rat was measured using a rat footpad volume-measuring device (MK-101 CMP PLETHYSMOMETER manufactured by Muromachi Kikai Co., Ltd.).
After that, the isoflurane was off and the emergence of the rat was confirmed. After Von Frey test was performed, the rat was generally anesthetized with isoflurane again. […]
A moiety (ROI) to be measured by the PDE camera was set at a central part of the dorsalis pedis and light was turned off. […] After that, luminance was measured for one minute at 5 minute-intervals and the measurement was continued until 120 minutes from the infusion. […]
After 7 days, a Von Frey test was performed and then the rat was quickly generally anesthetized with isoflurane, and the volume of the left foot of the rat was measured by using the rat footpad volume-measuring device. […] After that, luminance was measured for one minute at 5 minute-intervals and the measurement was continued until 120 minutes from the infusion. […]

Data set [6] is described as follows: Observation at blood vessel level (cremaster skin flap). In kind it is in vivo. The settings on record: rat, exposed blood vessel. On the procedure:
ICG or TK1 was administered in a state in which a blood vessel of a rat was directly exposed and observed by methods disclosed in Non Patent Documents 7 and 8 (FIG. 15), and a state of a cremaster skin flap after the exposure is shown in FIG. 16. ICG or TK1 was administered in the state in which the blood vessel was exposed, and the observation was performed. As a result, it was observed that ICG was unevenly distributed in the blood vessel, compared to TK1. […] In order to more precisely study it, photomicrographs of the blood vessel after the administration are shown in FIG. 17 (ICG) and FIG. 18 (TK1).

Data set [7] in a line: Fluorescence in aqueous solution. The settings on record: 0.1 μM aqueous solution, 25° C., 720 nm excitation; relative to ICG 0.13 in DMSO. In kind it is physicochemical. As for the experimental part:
The fluorescence of ICG and the cyclodextrin-bonded indocyanine compounds of the present invention (the chemical formulae 16, 20, 21, and 23 to 25) in an aqueous solution was studied. A 0.1 μM aqueous solution including ICG or each of the cyclodextrin-bonded indocyanine compounds of the present invention (the chemical formulae 16, 20, 21, and 23 to 25) was put in a 1 cm square quartz cell at 25° C., which was excited with 720 nm excitation light (bandpass: 10 nm), and a fluorescence spectrum (bandpass: 10 nm) was measured. A fluorescence efficiency was calculated based on a fluorescence efficiency of ICG, 0.13 (in DMSO, at 25° C.). […] The fluorescence quantum efficiencies thereof were respectively 2.6-fold and 2-fold of that of ICG.

Data set [8] can be described thus: Molecule association in aqueous solution (optical absorption spectrum). It counts as physicochemical. The settings on record: 0.01 mM to 0.1 mM aqueous solutions, 25° C., absorption 600 nm to 1000 nm. As for the experimental part: The molecule association of ICG and the cyclodextrin-bonded indocyanine compounds of the present invention (the chemical formulae 16, 20, 21, and 23 to 25) in an aqueous solution was studied. Each of 0.01 mM, 0.025 mM, 0.05 mM, and 0.1 mM aqueous solutions including ICG or the cyclodextrin-bonded indocyanine compound of the present invention (each chemical formula 16, 20, 21, and 23 to 25) was prepared, it was put in a quartz cell having a length of an optical path of 1 mm, and an optical absorption spectrum at 600 nm to 1000 nm was measured at 25° C.

The conditions of data set [9]: cited from earlier work.
The conditions of data set [10]: in DMSO, at 25° C.; cited from earlier work.
Setting [11] is: rat dorsal region of foot, 1 mM 0.1 mL caudate vein.

As for `CC1(C)C(/C=C/C=C/C=C/C=C2\N(CCCCS(=O)(=O)O)c3ccc4ccccc4c3C2(C)C)=[N+](CCCCS(=O)(=O)[O-])c2ccc3ccccc3c21` [ICG, indocyanine green], the “fluorescence in the ischemia area” value in [1] was “the fluorescence was not observed in the ischemia area”. Moreover, the “dissolving in water or physiological saline (need for vibration-stirring)” value in data set [2] is “About one minute violent vibration-stirring was necessary”. The “fluorescence intensity at the maximum fluorescence wavelength” value in [3] turned out to be 58 arbitrary unit. Further, the “organ of main accumulation” value in data set [4] (Wistar rat, 1 mM 0.1 mL caudate vein, 20 minutes after administration, abdominal cavity opened) is given as “mainly accumulated in the liver”. Besides, in data set [4] (male, Wistar, intravenous, 0.1 mL of 1 mM solution, rat dorsal region of foot, 1 mM 0.1 mL caudate vein, read-out: t1/2 (time at which the value reached a half of the Imax value)), the half-life worked out at 2.3 min. In addition, the “time after administration until fluorescence intensity was reduced to about initial value” in data set [4] (rat dorsal region of foot) is listed as “less than 10 minutes”. For the same compound, in [4] (setting [11]), the “Imax* (maximum fluorescence intensity value)” value is on record as 124 and the “Time for Imax (time reaching the maximum fluorescence intensity value)” value worked out at 0.5 min. The “time for luminance in ROI to decrease to the base line” value in data set [5] (rat dorsalis pedis, 0.1 mL caudate vein) is on record as “about 10 minutes”. The “luminance change of dorsalis pedis, λ-carrageenin group versus control” value in data set [5] (rat, dye infused after λ-carrageenin injection, interstitial tissue phase) is listed as “the difference in the luminance was not observed”. For the same compound, the “transfer from the blood vessel into the interstitial tissue fluid” value in data set [6] is given as “hardly transferred from the blood vessel into the interstitial tissue fluid”. In addition, the fluorescence quantum efficiency in data set [7] was found to be 0.021. Moreover, the “molecule association called H-aggregation” value in data set [8] is recorded as “occurred”. For the same compound, the “organ of accumulation (as already known)” value in data set [9] was “highly accumulated in liver”. In data set [10], the “fluorescence efficiency (reference value)” value is 0.13.
